{"source": "patent US6340484B1", "about": "“Compositions containing neem seed extracts and saccharide” (E.I.D. Parry (India) Limited, priority 2000, dated 2002)", "origin": "cited, not measured here", "settings": "25 days at 29+/−1° C.", "note": "Read-outs that look alike come from different tables or passages of the source.", "data": [{"smiles": "C/C=C(\\C)C(=O)O[C@H]1C[C@@H](OC(C)=O)[C@@]2(C(=O)OC)CO[C@H]3[C@@H](O)[C@@](C)([C@]45O[C@@]4(C)[C@@H]4C[C@H]5O[C@@H]5OC=C[C@@]54O)[C@H]4[C@]1(CO[C@]4(O)C(=O)OC)[C@@H]32", "note": "[azadirachtin A]", "values": [{"measurement": "degradation of azadirachtin A", "setting": "in acetone", "value": 50, "unit": "%"}, {"measurement": "degradation of azadirachtin A", "setting": "in carbon tetrachloride", "value": "75-80%"}, {"measurement": "degradation of azadirachtin A", "setting": "in chloroform", "value": "75-80%"}, {"measurement": "degradation of azadirachtin A", "setting": "in ethanol", "value": "about 85%"}, {"measurement": "degradation of azadirachtin A", "setting": "in methanol", "value": 50, "unit": "%"}, {"measurement": "degradation of azadirachtin A", "setting": "in methylene chloride", "value": "75-80%"}, {"measurement": "degradation of azadirachtin A", "setting": "in water", "value": "about 85%"}]}]}
